Experiment in all cases: relative viability (nuclei count vs DMSO), 5 days (fraction); higher = more cells survive
Compound in the assay “Palbociclib + Pemetrexed”: CC(=O)c1c(C)c2cnc(Nc3ccc(N4CCNCC4)cn3)nc2n(C2CCCC2)c1=O [Palbociclib] + Nc1nc2[nH]cc(CCc3ccc(C(=O)N[C@@H](CCC(=O)O)C(=O)O)cc3)c2c(=O)[nH]1 [Pemetrexed] (partner 0.2 µM)
The gist of the method:
(§1)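 Relative viability was taken as the ratio of nuclei in treated wells to nuclei in vehicle wells. Lung cancer cell lines in 1536-well plates received compounds by pin tool one day after seeding, either one drug alone or a fixed anchor-drug dose plus five library-drug doses (not always all listed) in √10 steps. Nuclei were counted on 4× images after 5 days of treatment, and values are medians of duplicate plates.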

Compound in the assay “Palbociclib + Linsitinib”: CC(=O)c1c(C)c2cnc(Nc3ccc(N4CCNCC4)cn3)nc2n(C2CCCC2)c1=O [Palbociclib] + C[C@]1(O)C[C@@H](c2nc(-c3ccc4ccc(-c5ccccc5)nc4c3)c3c(N)nccn32)C1 [Linsitinib] (partner 1 µM)
Put shortly: as §1

Compound in the assay “Palbociclib + Olaparib”: CC(=O)c1c(C)c2cnc(Nc3ccc(N4CCNCC4)cn3)nc2n(C2CCCC2)c1=O [Palbociclib] + O=C(c1cc(Cc2n[nH]c(=O)c3ccccc23)ccc1F)N1CCN(C(=O)C2CC2)CC1 [Olaparib] (partner 8 µM)
The gist of the method: as §1

Compound in the assay “Palbociclib + OSI-027”: CC(=O)c1c(C)c2cnc(Nc3ccc(N4CCNCC4)cn3)nc2n(C2CCCC2)c1=O [Palbociclib] + COc1cccc2cc(-c3nc([C@H]4CC[C@H](C(=O)O)CC4)n4ncnc(N)c34)[nH]c12 [OSI-027] (partner 0.5 µM)
Put shortly:
as §1

NCI-H1944: the relative viability with Palbociclib + Pemetrexed (first compound 0.01 µM) was 0.598; in the assay with Palbociclib + Pemetrexed (first compound 0.03162 µM), 0.57; with Palbociclib + Pemetrexed (first compound 0.1 µM), 0.589; with Palbociclib + Pemetrexed (first compound 0.3162 µM) it was 0.477; in the assay with Palbociclib + Pemetrexed (first compound 1 µM) it was 0.367; with Palbociclib + Linsitinib (first compound 0.01 µM), 1.15. Also, the relative viability came out at 0.993 in the assay with Palbociclib + Linsitinib (first compound 0.03162 µM); 1.06 in the assay with Palbociclib + Linsitinib (first compound 0.1 µM); 1.08 with Palbociclib + Linsitinib (first compound 0.3162 µM); 0.836 in the assay with Palbociclib + Linsitinib (first compound 1 µM); 0.411 with Palbociclib + Olaparib (first compound 0.01 µM); 0.397 with Palbociclib + Olaparib (first compound 0.03162 µM). The relative viability with Palbociclib + Olaparib (first compound 0.1 µM) was 0.404; in the assay with Palbociclib + Olaparib (first compound 0.3162 µM) it was 0.341; in the assay with Palbociclib + Olaparib (first compound 1 µM), 0.339; in the assay with Palbociclib + OSI-027 (first compound 0.01 µM), 0.461; in the assay with Palbociclib + OSI-027 (first compound 0.03162 µM) it was 0.336; in the assay with Palbociclib + OSI-027 (first compound 0.1 µM), 0.335. In addition, the values for the relative viability with Palbociclib + OSI-027 (first compound 0.3162 µM) and in the assay with Palbociclib + OSI-027 (first compound 1 µM) were 0.325 and 0.213, respectively.
On to NCI-H1975, for which the relative viability in the assay with Palbociclib + Pemetrexed (first compound 0.01 µM) amounted to 0.293; with Palbociclib + Pemetrexed (first compound 0.03162 µM), 0.284; in the assay with Palbociclib + Pemetrexed (first compound 0.1 µM), 0.276; with Palbociclib + Pemetrexed (first compound 0.3162 µM), 0.294; in the assay with Palbociclib + Pemetrexed (first compound 1 µM), 0.256; in the assay with Palbociclib + Linsitinib (first compound 0.01 µM), 0.956. The relative viability in the assay with Palbociclib + Linsitinib (first compound 0.03162 µM) amounted to 0.864; with Palbociclib + Linsitinib (first compound 0.1 µM), 0.886; in the assay with Palbociclib + Linsitinib (first compound 0.3162 µM) it was 0.766; with Palbociclib + Linsitinib (first compound 1 µM), 0.716; with Palbociclib + Olaparib (first compound 0.01 µM) it was 0.859; in the assay with Palbociclib + Olaparib (first compound 0.03162 µM) it was 0.762. Moreover, the relative viability with Palbociclib + Olaparib (first compound 0.1 µM) turned out to be 0.737; in the assay with Palbociclib + Olaparib (first compound 0.3162 µM), 0.623; with Palbociclib + Olaparib (first compound 1 µM), 0.61; with Palbociclib + OSI-027 (first compound 0.01 µM) it was 0.809; with Palbociclib + OSI-027 (first compound 0.03162 µM), 0.673; with Palbociclib + OSI-027 (first compound 0.1 µM) it was 0.665. In addition, the relative viability came to 0.685 in the assay with Palbociclib + OSI-027 (first compound 0.3162 µM) and 0.518 with Palbociclib + OSI-027 (first compound 1 µM).
With NCI-H1993, the relative viability is 0.681 with Palbociclib + Pemetrexed (first compound 0.01 µM); 0.649 with Palbociclib + Pemetrexed (first compound 0.03162 µM); 0.482 with Palbociclib + Pemetrexed (first compound 0.1 µM); 0.512 with Palbociclib + Pemetrexed (first compound 0.3162 µM); 0.54 in the assay with Palbociclib + Pemetrexed (first compound 1 µM); 0.706 with Palbociclib + Linsitinib (first compound 0.01 µM). Besides, the relative viability with Palbociclib + Linsitinib (first compound 0.03162 µM) was determined as 0.722; with Palbociclib + Linsitinib (first compound 0.1 µM) it was 0.648; in the assay with Palbociclib + Linsitinib (first compound 0.3162 µM), 0.693; with Palbociclib + Linsitinib (first compound 1 µM), 0.676; with Palbociclib + Olaparib (first compound 0.01 µM) it was 1.14; in the assay with Palbociclib + Olaparib (first compound 0.03162 µM), 0.907. The relative viability amounted to 0.945 with Palbociclib + Olaparib (first compound 0.1 µM); 0.846 with Palbociclib + Olaparib (first compound 0.3162 µM); 0.703 in the assay with Palbociclib + Olaparib (first compound 1 µM); 0.533 with Palbociclib + OSI-027 (first compound 0.01 µM); 0.505 with Palbociclib + OSI-027 (first compound 0.03162 µM); 0.513 in the assay with Palbociclib + OSI-027 (first compound 0.1 µM). Besides, the relative viability was found to be 0.524 with Palbociclib + OSI-027 (first compound 0.3162 µM) and 0.509 with Palbociclib + OSI-027 (first compound 1 µM).
For NCI-H2009, the relative viability with Palbociclib + Pemetrexed (first compound 0.01 µM) was 1.04; in the assay with Palbociclib + Pemetrexed (first compound 0.03162 µM), 0.925; in the assay with Palbociclib + Pemetrexed (first compound 0.1 µM), 0.913; with Palbociclib + Pemetrexed (first compound 0.3162 µM), 0.72; with Palbociclib + Pemetrexed (first compound 1 µM), 0.408; with Palbociclib + Linsitinib (first compound 0.01 µM) it was 1.18. Further, the relative viability in the assay with Palbociclib + Linsitinib (first compound 0.03162 µM) came out at 1.02; in the assay with Palbociclib + Linsitinib (first compound 0.1 µM), 0.957; with Palbociclib + Linsitinib (first compound 0.3162 µM), 0.909; with Palbociclib + Linsitinib (first compound 1 µM) it was 0.494; in the assay with Palbociclib + Olaparib (first compound 0.01 µM) it was 0.691; with Palbociclib + Olaparib (first compound 0.03162 µM), 0.617. Besides, the relative viability is 0.545 with Palbociclib + Olaparib (first compound 0.1 µM); 0.54 in the assay with Palbociclib + Olaparib (first compound 0.3162 µM); 0.366 with Palbociclib + Olaparib (first compound 1 µM); 0.64 with Palbociclib + OSI-027 (first compound 0.01 µM); 0.481 with Palbociclib + OSI-027 (first compound 0.03162 µM); 0.331 with Palbociclib + OSI-027 (first compound 0.1 µM). Also, the relative viability with Palbociclib + OSI-027 (first compound 0.3162 µM) worked out at 0.297; with Palbociclib + OSI-027 (first compound 1 µM), 0.194.

The values above are taken from the supplement of paper PMC10307832.
